Experimental data reported in patent publication US10639287B2, “Compounds for the treatment of mitochondrial diseases” (UNIVERSITE PARIS-SUD, priority 2014, dated 2020).

Assays:
[1] = system: wild-type Mip1 or mutated Mip1G651S yeast protein; assay: Amount of Mip1 proteins in mitochondria-enriched extracts (SDS/PAGE, western blot); format: cell-based, Saccharomyces cerevisiae; conditions: 32 μM vs DMSO
Protocol: The analysis of the effect of clofilium tosylate on the amount of wild-type or mutated Mip1 proteins was carried out on cell extracts enriched in mitochondria. In order to visualise the expression of the Mip1 and Mip1G651S proteins, the sequence encoding three HA epitopes was cloned in 3′ and in phase with the coding sequence of Mip1 and Mip1G651S.
The yeast cells were cultured in selective medium (SC-TRP, 2% ethanol) overnight. Then, the cells were seeded at an initial optical density (DO600) of 0.05 in 100 mL of YPE (1% Yeast Extract, 0.5% Bacto Peptone, 2% Ethanol) supplemented either by DMSO or by 32 μM clofilium tosylate at 28° C. with stirring until a DO600 between 3 and 4 was achieved. The cells were centrifuged at 3000 g for 5 min and washed with water. The isolation of the fraction enriched in mitochondria and protein extraction of this fraction were carried out according to the protocol described by Hoffman et al., 2009 (Hofmann, L., Saunier, R., Cossard, R., Esposito, M., Rinaldi, T. and Delahodde, A. (2009) A non-proteolytic proteasome activity controls organelle fission in yeast. J. Cell. Sci., 122, 3673-3682).
The protein extracts of the fractions enriched in mitochondria were analysed by SDS/PAGE gel electrophoresis (6% for the analysis of the proteins Mip1-HA and Mip1G651S-HA and 10% for the analysis of Cox2 mitochondrial proteins (encoded by mtDNA) and porin). […]

MIP1 yeast mutants = assay: Fidelity of Mip1 polymerase: frequency of cells resistant to erythromycin (Ery^R); format: cell-based, Saccharomyces cerevisiae; conditions: 32 μM vs DMSO
From the text: A disruption of the fidelity of the Mip1 mitochondrial polymerase can be evaluated by measuring the frequency of cells resistant to erythromycin (Ery^R). The Ery^R mutations are caused by mutations in the 21S mitochondrial ribosomal RNA encoded by mtDNA that may occur after incorporation of a bad nucleotide (Baruffini, E., Lodi, T., Dallabona, C., Puglisi, A., Zeviani, M. and Ferrero, I. (2006) Genetic and Chemical rescue of the Saccharomyces cerevisiae phenotype induced by mitochondrial DNA polymerase mutations associated with progressive external ophthalmoplegia in humans. Hum. Mol. Genet., 15, 2846-2855). Measuring the resistance to erythromycin is one way to directly measure the point mutations of mtDNA.
Independent colonies were seeded in 10 mL of minimal medium (SC-TRP, 2% glucose) in the presence of 32 μM clofilium tosylate or DMSO to stationary phase. […] The mutation frequency was calculated as the number of Ery^R colonies among the total number of colonies (Baruffini, E., Lodi, T., Dallabona, C., Puglisi, A., Zeviani, M. and Ferrero, I. (2006) Genetic and Chemical rescue of the Saccharomyces cerevisiae phenotype induced by mitochondrial DNA polymerase mutations associated with progressive external ophthalmoplegia in humans. Hum. Mol. Genet., 15, 2846-2855).

## CCCCCCC[N+](CC)(CC)CCCCc1ccc(Cl)cc1.Cc1ccc(S(=O)(=O)[O-])cc1 [clofilium tosylate]
[1]
  amount of wild-type Mip1 or mutated Mip1G651S yeast protein: increased
MIP1 yeast mutants
  fidelity of the different MIP1 yeast mutants (Ery^R frequency): no effect
